Experimental data from PMC8502973 (Frontiers in Physiology, 2021).
“Also recorded” adds a separate entry of the source.

Assays:
hV1aR = test system: hV1aR; set-up: method as in 3 sources, one per row (each row's own in cited_ref): ref Wiśniewski et al. (2014) ||| ref Modi et al. (2016) ||| ref Modi et al., 2016; settings: OXT; ref Wiśniewski et al. (2014); cited from earlier work
[1] = Dose escalation: kaolin intake (pica, nausea/visceral malaise); type: in vivo, male DIO Sprague Dawley rats
Procedure: (§1) Sprague Dawley rats (male, ∼4 weeks of age, 51–75 g body weight) were switched from standard chow to a high fat diet (Research Diets, Diet # D12492, 60, 20, 20%kcal from fat, protein, and carbohydrate, respectively, 5.21 kcal/g; stored at −20°C). The rats were maintained on this diet for approximately 15 weeks prior to the start of experiments to develop a diet-induced overweight (DIO) model. Animals were individually housed on a 12 h/12 h light/dark cycle (lights on at 04:00 h) in a temperature (23°C) and humidity (mean 50%, SD 10%) controlled room. All body weight measurements were made just prior to the start of the dark cycle.
(§2) Sequential rounds of a 3-day baseline phase (vehicle treated), a 3-day treatment phase, and a washout phase (2–5 days as necessary) were tested. […] High fat diet was accessible to the rats from all but the last 6 h of the light cycle and water was provided ad libitum. This daily period of food restriction was used to prevent incidental feeding in the event animals were disturbed from their sleep by noise from surrounding rooms. To assess a potential pica response (nausea/visceral malaise) in animals, powdered kaolin (Sigma-Aldrich, K1512) was made available on drug treatment days with a restriction period similar to the high fat diet. Prior to the first experiment, rats were provided access to kaolin for 2 days so that they could familiarize themselves with it prior to start of testing. Food and kaolin intake were continuously recorded using AccuScan DietMax (currently OmniTech Electronics, Inc., Diet System) cages. The high fat diet was compressed in the food tray to form a solid block of food. This allows for more accurate meal size measurements by preventing the animals from removing entire pellets at time. All food and kaolin intake data were binned into 15-min intervals for analysis and the start of the 24-h food intake period aligned to the lights turning off in the animal room. Body weight was recorded, and treatment injections were administered just prior to the start of the dark cycle.

[2] = Dose escalation: water intake; type: in vivo, male DIO Sprague Dawley rats; settings: sc once daily; ASK1476 F(1.80, 12.61) = 3.15, p = 0.082; OXT F(1.68, 11.72) = 4.05, p = 0.086
Procedure: as §1
(§3) Sequential rounds of a 3-day baseline phase (vehicle treated), a 3-day treatment phase, and a washout phase (2–5 days as necessary) were tested. […] High fat diet was accessible to the rats from all but the last 6 h of the light cycle and water was provided ad libitum. This daily period of food restriction was used to prevent incidental feeding in the event animals were disturbed from their sleep by noise from surrounding rooms. […] Food and kaolin intake were continuously recorded using AccuScan DietMax (currently OmniTech Electronics, Inc., Diet System) cages. […] Body weight was recorded, and treatment injections were administered just prior to the start of the dark cycle.

[3] = Long-term (28-day) drug intervention: body weight; type: in vivo, male DIO Sprague Dawley rats
Procedure: as §1
(§4) Male DIO Sprague Dawley rats (n = 24) were generated as outlined above and were 644.5 g (50 g) at the start of drug treatment. The animals were divided into three treatment groups (n = 8 each) balanced for body weight, body weight gain during baseline, food intake, and Lee Index [body weight^(1/3)/snout to anus length (mm)] ([Lee, 1929]; [Simson and Gold, 1982]) as an indicator of adiposity (Figure 2). In a subset of the animals (n = 5 per group, balanced for prior mentioned criteria), Mini-Mitter transponders (PDT-4000 E-Mitter, Respironics Inc.) were implanted posterior to the left scapula at least 9 days prior to start of baseline measures to ensure sufficient recovery time. Body temperature and gross motor activity were continuously recorded via these transponders. […] High fat diet and water were provided ad libitum and intake was recorded with daily hopper and water bottle weighs at time of body weight assessment just prior to drug administration. Blood samples were taken at start of intervention by tail vein bleeding and via cardiac puncture under an isoflurane induced surgical plane of anesthesia at euthanasia. Animals were euthanized on treatment day 29, 4 h after receiving a dose of their assigned treatment, via decapitation under isoflurane anesthesia immediately following blood draw. Body composition was assessed on carcasses.
From treatment day 8 on the doses were maintained to assess long-term efficacy at a therapeutically meaningful dose.

Toxicity / mortality = type: in vivo; settings: rat, in vivo, sc
[4] = set-up: method as in Freeman et al., 2016; settings: peripheral administration, macaques; ref Freeman et al., 2016; cited from earlier work
[5] = Dose escalation: food intake; type: in vivo, male DIO Sprague Dawley rats
Procedure: as §1, §2

[6] = cited from earlier work
From the text: (§5) Finally, the potential for toxic side effects upon chronic administration at high concentration and/or f ...

[7] = Long-term: body composition of carcasses by quantitative magnetic resonance; type: in vivo, male DIO Sprague Dawley rats
From the text: as §4
Body composition (total and relative fat mass, lean mass, and water content) was assessed on carcasses from the long-term drug intervention study using Quantitative Magnetic Resonance (EchoMRI 4-in-1, Echo Medical Systems, Houston, TX) at the Rodent Metabolic and Behavioral Phenotyping Core at the VA Puget Sound Health Care System (VAPSHCS).

[8] = Dose escalation: body weight change; type: in vivo, male DIO Sprague Dawley rats; settings: sc once daily
Procedure: as §1, §3

[9] = test system: OXTR compared with the V1aR; set-up: method as in Akerlund et al., 1999; settings: ref Akerlund et al., 1999; cited from earlier work
From the text: as §5

[10] = 2015, cited from earlier work
From the text: OXT is a downstream target of the adipose tissue hormone leptin.

hOXTR = test system: hOXTR; set-up: method as in 2 sources, one per row (each row's own in cited_ref): ref Wiśniewski et al. (2014) ||| ref Modi et al. (2016); settings: OXT; ref Wiśniewski et al. (2014); cited from earlier work
[11] = Long-term: gross motor activity and body temperature (Mini-Mitter transponders); type: in vivo, male DIO Sprague Dawley rats; settings: 28-day study, n = 5 per group, first 12 days analysed
From the text: as §4
For comparisons of mean longitudinal changes in body temperature and activity, only the first 12 days of treatment, divided into three 4-day phases, were included in the analysis. These 4-day phases allowed for analyses to consider the ASK1476 dose titration.

## oxytocin [OXT]
hV1aR
  EC50: 10 nM
[1]; ASK1476 dosing spectrum
  visceral malaise signal (notably high kaolin intake in a few animals): not observed in any
[1]; low doses, sc once daily
  kaolin intake at low doses: below 4 g/d
[1]; sc once daily, ASK1476 6-300 nmol/kg F(1.80, 12.59) = 2.26, p = 0.148, OXT 20-1200 nmol/kg F(1.51, 10.52) = 1.73, p = 0.223
  kaolin intake, effect of treatment: no significant effect of treatment
[2]
  water intake: not significantly affected
[3]; 28-d treatment
  compensatory weight gain / weight regain following nadir: significantly lower rates of weight regain following body weight nadir
[3]; 28-day treatment, sc once daily
  average day of body weight nadir: 14 days
[3]; OXT: 95% CI −0.23 to 0.01, p = 0.069
  daily percent change of body weight from nadir, mean difference vs. vehicle: −0.11%
[3]; after 28-day Tx, ASK1476 to 120 or OXT 600 nmol/kg/d sc, n = 8, Mean ± SD, oxytocin * p < 0.05 vs vehicle, ANOVA p 0.041
  Body weight, post-treatment: 615.143.2* g
[3]; long-term study, titration phases
  reduction in body weight, OXT 600 nmol/kg/d compared with ASK1476 30 and 60 nmol/kg: significantly greater reductions in body weight
[3]; mean, SD 0.04% ASK1476, 0.16% OXT, vehicle 0.34% (SD 0.05%)
  average daily individual percent change of body weight from nadir to end of treatment: 0.23%
[3]; treatment days 9-28
  weight stability during final 20 days: remained weight stable
Toxicity / mortality
  adverse effects or tolerability issues: No adverse effects or tolerability issues were observed
[4]
  entry into the CSF from the periphery: only small amounts
[5]; OXT 20 nmol/kg sc once daily vs 3-day saline baseline, n = 8, 95% CI −19.40 to −2.94, p = 0.0106
  reduction in 3-day averaged food intake: -11.17 kcal/day
[5]; sc once daily, 3 days, n = 8
  lowest dose with significant reduction in 3-day averaged food intake: 20 nmol/kg
[5]; sc once daily, ASK1476 F(2.84, 19.86) = 6.52, p = 0.003, OXT F(1.89, 13.25) = 9.49, p = 0.003
  interaction of treatment and dose on 3-day averaged food intake: significant interaction
[6]
  half-life in vivo: ~5 min
[7]; OXT 600 nmol/kg/d 28 days, 95% CI −97.2 to 7.2, p = 0.103
  fat mass, difference vs vehicle: -45.0 g
[7]; OXT 600 nmol/kg/d 28 days, 95% CU −109.8 to −5.4, p = 0.028
  lean mass, difference vs vehicle: -57.6 g
[7]; after 28-day Tx, n = 8, Mean ± SD, oxytocin * p < 0.05 vs vehicle, ANOVA p 0.015
  Lean mass, post-treatment: 416.531.9* g
[8]; ASK1476 6-300 nmol/kg, OXT 20-1200 nmol/kg, 3 days
  body weight gain across dosing spectrum: Significant reductions in body weight gain; also recorded: effective in reducing body weight gain across the dose spectrum
[8]; ASK1476 F(2.08, 15.54) = 9.50, p = 0.002, OXT F(2.40, 16.79) = 16.98, p < 0.0001
  interaction of treatment and dose on body weight change: significant interaction
[9]
  affinity for the OXTR compared with the V1aR: fivefold greater affinity
[10]; peripheral administration, diet-induced and genetically obese rodent models, ref Maejima et al., 2011, Morton et al., 2012, Blevins et al.
  food intake, energy expenditure and weight gain: reduces food intake, enhances energy expenditure, and prevents or reduces weight gain
[10]; ref Blevins et al.
  energy expenditure / weight loss in diet-induced obese non-human primates: elicits weight loss, in part, by increasing energy expenditure
hOXTR
  EC50: 2.3 nM
[11]
  locomotor activity or body temperature: did not find any evidence
[11]; listed as oxytocin
  locomotor activity or body temperature: no effects were detected on locomotor activity or body temperature
